Source: article PMC3256188, “Novel Nonphosphorylated Peptides with Conserved Sequences Selectively Bind to Grb7 SH2 Domain with Affinity Comparable to Its Phosphorylated Ligand” (PLoS ONE, 2012)
“Also recorded” adds a separate entry of the source.

What was measured:
[1] = biological target: T1, GFP-Grb7 SH2 domain and 41-mRLUC-3×Flag complex (Homo sapiens, UniProt Q14451); assay: Competition immunoprecipitation, GFP-Grb7 SH2 domain and 41-mRLUC-3×Flag complex; assay type: binding
T1 construct: expressed in transfected cells; host or cells: HEK293T
From the text: To see whether the nonphosphorylated peptide could effectively compete with phosphorylated ligand for binding to the Grb7 SH2 domain, the phosphorylated ligand pY (1180) (DEEYEpY(1180)MNRRR), which was previously shown to interact with the Grb7 SH2 domain [6], and the nonphosphorylated 41-A ligand ([…]), which contains the first twenty-two amino acid-motif close to the N-terminus of peptide 41, were examine for their abilities to interfere with the GFP-Grb7 SH2 domain and 41-mRLUC-3×Flag complex using immunoprecipitation with anti-GFP antibody.
The phosphorylated ligand pY (1180) (DEEYEpY(1180)MNRRR) from the ErbB3 and the nonphosphorylated peptide 41-A ([…] RV) from nonphosphorylated peptide 41 were synthesized by the China Peptides Co., Ltd. The HPLC purification analysis and MS quality analysis reports were obtained.
HEK293T cells were washed 5 times with ice-cold PBS buffer and scraped off the plates into cell lysis buffer (1% Nonidet P-40, 0.02 M TRIS (pH 7.5), 0.15 M sodium chloride, 0.001 M EDTA, 0.5% sodium deoxycholate, 0.1% SDS and 0.001 M PMSF). Lysates were incubated on ice for 5 minutes, vortexed 2 times for 30 seconds each and centrifuged at 12,000 rpm for 15 minutes at 4°C. After centrifuging twice, the supernatant was incubated with anti-Flag antibody (1∶100, M20008M, Abmart, China) for 6–8 h at 4°C. Protein G agarose (40 µL) was added into 1 mL of the above mixture and coupled to the anti-Flag antibody for 3 h at 4°C. The immunoprecipitates were washed 2–3 times with PBS buffer (PH 7.4), and the sediments were diluted with 5×SDS electrophoresis buffer and heated at 97°C for 10 minutes. The proteins were separated by SDS-PAGE and transferred to PVDF membranes (IPVH00010, Millipore, USA). The membranes were incubated with anti-GFP antibody (1∶2000, P30010, Abmart, China) and goat anti-rabbit secondary antibody (1∶4000, M21002, Abmart, China) to identify target proteins. For the competition analyses, the immunoprecipitation complexes were mixed with anti-Flag antibody and different concentrations of the synthesized phosphorylated ligands or the nonphosphorylated ligands. The proteins were separated by SDS-PAGE, and the SH2 domain of Grb7 protein was analyzed using anti-GFP antibody. Western blot analysis was carried out using the Image J [37], the IC50 values were calculated by regression analyses using SPSS 17.0.

Grb7 SH2 domain [2] = biological target: Grb7 SH2 domain; set-up: method as in earlier work; details: binding to Grb7 SH2 domain; calorimetric (title of ref 27); read-out: dissociation constant (Kd); cited from earlier work
From the text: Many drugs are designed to target the SH2 domain of Grb7. […] This peptide also serves as a model for chemical drug de ...

Grb7 SH2 domain [3] = assay: Co-immunoprecipitation from transfected HEK293T cells; assay type: binding; details: HEK293T co-transfected with peptide-mRLUC-3×Flag and EGFP-Grb7 SH2, 36 h; anti-Flag IP, anti-GFP blot
From the text: In the co-immunoprecipitation assay, the mRLUC fragment was generated by PCR amplification. The inserted sequence of the Grb7 SH2 domain was as follows: N- […]-C. This sequence was inserted at the C terminus of the EGFP tag. The sequence of peptide 10 was as follows: N-[…]-C. The sequence of peptide 41 was as follows: N-[…]-C. The sequence of peptide 10CM was as follows: N-[…]-C. The nonphosphorylated peptide and the mRLUC fragment were inserted at the N-terminus of the Flag tag. The mRLUC fragment was fused with the nonphosphorylated peptide so that they could be easily identifiable. The empty vector containing the mRLUC fragment was used as the negative control.
(§1) HEK293T cells at 70%–80% confluency were given fresh DMEM (high glucose) culture medium and transfected with plasmids using the calcium phosphate method. Samples were collected at 36 h after transfection.
HEK293T cells were washed 5 times with ice-cold PBS buffer and scraped off the plates into cell lysis buffer (1% Nonidet P-40, 0.02 M TRIS (pH 7.5), 0.15 M sodium chloride, 0.001 M EDTA, 0.5% sodium deoxycholate, 0.1% SDS and 0.001 M PMSF). […] The proteins were separated by SDS-PAGE, and the SH2 domain of Grb7 protein was analyzed using anti-GFP antibody. Western blot analysis was carried out using the Image J [37], the IC50 values were calculated by regression analyses using SPSS 17.0.

[4] = system: EYFP-tagged Grb7 SH2 domain; assay: Bioluminescence Resonance Energy Transfer (BRET) in HEK293T cells; assay type: cell-based; details: 36 h after transfection, EYFP-Grb7 SH2 + mRLUC-tagged peptide, coelenterazine 5.9 µM, eighteen group ratios
From the text: For the BRET assay, the EYFP fragment was generated by PCR amplification. The ErbB3-mRLUC plasmid was constructed by the Beijing Sino Biological Inc. The SH2 domain of Grb7 was fused to the EYFP fragment, and the nonphosphorylated peptides 10 and 41 were fused to the mRLUC fragment. The Grb7 SH2 domain sequence was inserted at the C-terminus of the EYFP tag.
as §1
In BRET, the Renilla luciferase (mRLUC) is fused to the candidate protein, and the green fluorescent protein mutant (EYFP) is fused to the target protein. Interactions between the two fused proteins bring the luciferase and the green fluorescent protein into close proximity, which promotes resonance energy transfer from mRLUC to EYFP [38]. Then EYFP is […] at 530 nm, and the emission is used to determine the binding between the two interacting proteins. In this study, HEK293T cells were collected at 36 h after transfection, 100 µL of mixed cell suspension was added to the u-bottom 96-well microtiter plates (Corning, USA) before measurement. The measurement of bioluminescence, with rasters of 460/40 nm and 518/20 nm, was performed on Synergy4 Multi-Mode Microplates Readers (BioTek, USA). The BRET reaction was initiated by 5.9 µM coelenterazine (Promega, USA). Data were analyzed by one-factor analysis of variance using SPSS 17.0.

[5] = system: SK-BR-3 breast cancer cells; assay: MTS cell proliferation assay; assay type: cell-based; details: double-factor variance analysis, n = 10, p<0.001, Figure 4B
Experimental: For the cell proliferation assay, the anti-Grb7 antibody (N-20, Santa Cruz Biotechnology, USA) and the anti-Flag antibody (M20008M, Abmart, China) were used for the western blot, and MTS (Promega, USA) was used for the analysis of cell proliferation.
The MTS cell proliferation assay was performed to analyze the proliferation of SK-BR-3 breast cancer cells (Cell culture center of PUMC, China) according to the manufacturer's instructions (Promega, USA). SK-BR-3 cells at 70%–80% confluency were transiently transfected respectively with plasmids of 41-mRLUC-3×Flag or mRLUC-3×Flag and Mega Tran 1.0 (OriGene, USA). Beginning from 12 h after transfection, 400 µg/mL G418 (11811-023, Invitrogen, USA) was used to select for the transfected cells. The u-bottom 96-well microtiter plates (Corning, USA) were seeded with approximately 7.50×10^3 cells per well at 18 h after transfection. […] The absorbance at 492 nm of transfected cells and control DMEM medium was measured separately at 18 h, 24 h, 36 h, 48 h and 60 h after transfection on Synergy4 Multi-Mode Microplates Readers (BioTek, USA). The absorbance was adjusted by differences in the absorbance between cell culture medium and control medium without seeded cells. The data were analyzed by double-factor variance analysis using SPSS 17.0.

T1 sequence (Q14451 425-532, one chain of several): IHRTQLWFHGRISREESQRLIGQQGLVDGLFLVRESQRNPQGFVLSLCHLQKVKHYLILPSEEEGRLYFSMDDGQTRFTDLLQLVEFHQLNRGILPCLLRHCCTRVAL

Substance	interference with binding of the Grb7 SH2 domain to peptide 41 ([1]; 0.0072 mM)	interference with binding of the Grb7 SH2 domain to peptide 41 ([1]; 0.036 mM)	interference with binding of the Grb7 SH2 domain to peptide 41 ([1]; 0.18 mM)	disruptive effect on the Grb7 SH2 domain/peptide 41 interaction ([1]; Figure 3A, overall, concentration not given)	binding affinity to the Grb7 SH2 domain, comparison of 41-A and pY (1180) ([1]; in vitro competition, in words)	Kd (Grb7 SH2 domain [2]) [nM]	pull-down of the Grb7 SH2 domain (co-immunoprecipitation) (Grb7 SH2 domain [3])	BRET luminescence ratio of 530/480 nm [4]	binding to the Grb7 SH2 domain in the absence of competitor ([1]; in the absence of peptide pY (1180) and peptide 41-A, Figure 3A)	adjusted absorbance between transfected cell groups and between time points [5]
DEEYEpY(1180)MNRRR [pY (1180), phosphorylated ligand pY (1180) (DEEYEpY(1180)MNRRR) from the ErbB3, reference compound]	did not significantly interfere	did not significantly interfere	nearly abolished	abolished the association between the Grb7 SH2 domain and nonphosphorylated peptide 41	at least comparable binding affinities to the Grb7 SH2 domain	~1150				
N-VGTWTTRGPWCPCVAVGIPTQPTTSSEPSPPSNPPWDPGRVLLGRIVWPGLLALGIPTHHQNDTYNSPHAHPNRDP-C [peptide 41, nonphosphorylated peptide with two twenty-two residue motifs, 41-A and 41-B]							pulled down the Grb7 SH2 domain; also recorded: co-immunoprecipitated	significantly stronger	could bind to the Grb7 SH2 domain	Statistically significant differences existed in both of groups
